Measured values reported in the NIST ThermoML archive (doi:10.1021/je800110r).

Conditions: Liquid, Vibrating tube method

CCCCCCCCCC [decane]
Conditions | mass density [kg/m3]
323.14 K, 29147 kPa | 730.4
323.14 K, 29286 kPa | 730.6
323.14 K, 29368 kPa | 730.6
323.14 K, 29415 kPa | 730.5
323.14 K, 29637 kPa | 730.8
323.14 K, 29675 kPa | 730.8
323.14 K, 29724 kPa | 730.9
323.14 K, 29765 kPa | 730.8
323.14 K, 29800 kPa | 730.9
323.14 K, 29840 kPa | 731
323.14 K, 29872 kPa | 731
323.14 K, 29908 kPa | 730.9
323.14 K, 29935 kPa | 731
323.14 K, 29962 kPa | 730.9
323.14 K, 29999 kPa | 731.1
323.14 K, 30026 kPa | 731
323.14 K, 30054 kPa | 731.1
323.14 K, 30082 kPa | 731.1
323.14 K, 30114 kPa | 731.1
323.14 K, 30147 kPa | 731.1
323.14 K, 30180 kPa | 731.2
323.14 K, 30217 kPa | 731.1
323.14 K, 30240 kPa | 731.2
323.14 K, 30273 kPa | 731.2
323.14 K, 30306 kPa | 731.2
323.14 K, 30353 kPa | 731.3
323.14 K, 30381 kPa | 731.3
323.14 K, 30409 kPa | 731.3
323.14 K, 30447 kPa | 731.3
323.14 K, 30475 kPa | 731.3
323.14 K, 30513 kPa | 731.3
323.14 K, 30547 kPa | 731.4
323.14 K, 30586 kPa | 731.4
323.14 K, 30624 kPa | 731.4
323.14 K, 30652 kPa | 731.6
323.14 K, 30686 kPa | 731.6
323.14 K, 30720 kPa | 731.5
323.14 K, 30753 kPa | 731.7
323.14 K, 30787 kPa | 731.5
323.14 K, 30816 kPa | 731.5
323.14 K, 30851 kPa | 731.7
323.14 K, 30890 kPa | 731.5
323.14 K, 30919 kPa | 731.6
323.14 K, 30964 kPa | 731.6
323.14 K, 30993 kPa | 731.6
323.14 K, 31028 kPa | 731.6
323.14 K, 31068 kPa | 731.8
323.14 K, 31097 kPa | 731.8
323.14 K, 31257 kPa | 731.9
323.14 K, 31307 kPa | 732
323.14 K, 31343 kPa | 731.9
323.14 K, 31374 kPa | 732
323.14 K, 31421 kPa | 732.1
323.14 K, 31463 kPa | 732
323.14 K, 31495 kPa | 732.1
323.14 K, 31537 kPa | 732.1
323.14 K, 31569 kPa | 732
323.14 K, 31606 kPa | 732.1
323.14 K, 31636 kPa | 732.2
323.14 K, 31661 kPa | 732.2
323.14 K, 31690 kPa | 732.1
323.14 K, 31715 kPa | 732.2
323.14 K, 31736 kPa | 732.2
323.14 K, 31774 kPa | 732.2
323.14 K, 31812 kPa | 732.3
323.14 K, 31838 kPa | 732.2
323.14 K, 31872 kPa | 732.3
323.14 K, 31911 kPa | 732.5
323.14 K, 31949 kPa | 732.3
323.14 K, 31979 kPa | 732.3
323.14 K, 32017 kPa | 732.4
323.14 K, 32056 kPa | 732.4
323.14 K, 32082 kPa | 732.5
323.14 K, 32116 kPa | 732.5
323.14 K, 32143 kPa | 732.5
323.14 K, 32175 kPa | 732.5
323.14 K, 32205 kPa | 732.5
323.14 K, 32236 kPa | 732.4
323.14 K, 32266 kPa | 732.6
323.14 K, 32305 kPa | 732.5
323.14 K, 32332 kPa | 732.6
323.14 K, 32363 kPa | 732.6
323.14 K, 32403 kPa | 732.7
323.14 K, 32438 kPa | 732.7
323.14 K, 32465 kPa | 732.8
323.14 K, 32522 kPa | 732.8
323.14 K, 32717 kPa | 732.9
323.14 K, 32817 kPa | 733
323.14 K, 32841 kPa | 733
323.14 K, 32902 kPa | 733
323.14 K, 32934 kPa | 733.1
323.14 K, 32966 kPa | 732.9
323.14 K, 32994 kPa | 733.1
323.14 K, 33023 kPa | 733
323.14 K, 33048 kPa | 733
323.14 K, 33069 kPa | 733.1
323.14 K, 33090 kPa | 733.2
323.14 K, 33114 kPa | 733.2
323.14 K, 33147 kPa | 733.2
323.14 K, 33173 kPa | 733.2
323.14 K, 33193 kPa | 733.3
323.14 K, 33219 kPa | 733.3
323.14 K, 33249 kPa | 733.2
323.14 K, 33274 kPa | 733.3
323.14 K, 33300 kPa | 733.3
323.14 K, 33334 kPa | 733.3
323.14 K, 33356 kPa | 733.2
323.14 K, 33387 kPa | 733.4
323.14 K, 33504 kPa | 733.4
323.14 K, 33553 kPa | 733.5
323.14 K, 33615 kPa | 733.5
323.14 K, 33644 kPa | 733.5
323.14 K, 33671 kPa | 733.6
323.14 K, 33690 kPa | 733.5
323.14 K, 33720 kPa | 733.5
323.14 K, 33749 kPa | 733.6
323.14 K, 33775 kPa | 733.6
323.14 K, 33801 kPa | 733.6
323.14 K, 33824 kPa | 733.6
323.14 K, 33858 kPa | 733.7
323.14 K, 33895 kPa | 733.7
323.14 K, 33921 kPa | 733.8
323.14 K, 33948 kPa | 733.7
323.14 K, 33971 kPa | 733.8
323.14 K, 34266 kPa | 733.9
323.14 K, 34292 kPa | 734
323.14 K, 34329 kPa | 733.9
323.14 K, 34363 kPa | 733.9
323.15 K, 688 kPa | 707.4
323.15 K, 762 kPa | 707.5
323.15 K, 781 kPa | 707.5
323.15 K, 802 kPa | 707.6
323.15 K, 828 kPa | 707.5
323.15 K, 851 kPa | 707.6
323.15 K, 875 kPa | 707.7
323.15 K, 894 kPa | 707.6
323.15 K, 924 kPa | 707.7
